This note sets out measurements from ChEMBL document CHEMBL4041543, “Light induced drug release from a folic acid-drug conjugate” (Bioorg Med Chem Lett, 2017).

The nature of the test: Drug level treated with Photo Dox-Fol conjugate assessed as photolysis-mediated compound release in presence of 1.1 J/cm2 UV light irradiation by RP-HPLC method.

For `COc1cccc2c1C(=O)c1c(O)c3c(c(O)c1C2=O)C[C@@](O)(C(=O)CO)C[C@@H]3O[C@H]1C[C@H](N)[C@H](O)[C@H](C)O1`, the Drug metabolism entry is “Metabolite detected”.
